Data from patent US6413517B1, “Identification of broadly reactive DR restricted epitopes” (Epimmune, Inc., priority 1997, dated 2002).
Where two headings read alike, the source gives them in different places. No end group written: not given here.

Key:
DRB1*0802 (DR8w2) = molecular target: T1, DRB1*0802 (DR8w2) (Homo sapiens, UniProt P01903+P01911, A100R/A103L/A169T/F76Y/H45Y/I96F/K41T/L162R/M171V/P40S/Q125H/Q178H/Q39Y/Q99D/R218S/R42G/S66Y/V115G/W38E); assay: biochemical; assay type: binding
T1 construct: Epstein-Barr virus (EBV) transformed homozygous cell lines were used as sources; endogenous in cells; host or cells: OLL (EBV-transformed homozygous B cell line)

DRB1*0405 (DR4w15) = molecular target: T2, DRB1*0405 (DR4w15) (Homo sapiens, UniProt P01903+P01911, A100R/A169T/D86S/F76Y/I96L/K127E/L162R/M171V/N62H/P40V/Q125Y/R42H/S133A/S149N/S66Y/V115G/V209L/W38E); assay: biochemical; assay type: binding
T2 construct: Epstein-Barr virus (EBV) transformed homozygous cell lines were used as sources; endogenous in cells; host or cells: KT3 (EBV-transformed homozygous B cell line)

DRB1*1501 (DR2w2b) = molecular target: T3, DRB1*1501 (DR2w2b) (Homo sapiens, UniProt P01903+P01911); assay: biochemical; assay type: binding
T3 construct: expressed in transfected cells; host or cells: transfected fibroblasts L466.1

DRB1*0901 (DR9) = molecular target: T4, DRB1*0901 (DR9) (Homo sapiens, UniProt P01903+P01911, A100R/A103E/D57H/D86V/F55Y/F60I/F76Y/I96F/K127E/L162R/M171V/P40D/Q125H/Q99R/R33Q/R42F/S133A/S66N/T210M/V115G/W38K/Y107V/Y59G/Y89S); assay: biochemical; assay type: binding
T4 construct: Epstein-Barr virus (EBV) transformed homozygous cell lines were used as sources; endogenous in cells

DRB1*0101 (DR1) = molecular target: T5, DRB1*0101 (DR1) (Homo sapiens, UniProt P01903+P01911, A100R/D57E/F55L/F60I/F76Y/I96L/L162R/M171V/P40L/Q125E/R42F/V115G/Y59C); assay: biochemical; assay type: binding
T5 construct: Epstein-Barr virus (EBV) transformed homozygous cell lines were used as sources; endogenous in cells; host or cells: LG2 (EBV-transformed homozygous B cell line)

DRB1*0301 (DR3w17) [1] = molecular target: T6, DRB1*0301 (DR3w17) (Homo sapiens, UniProt P01903+P01911, A100K/A102G/A103R/A169T/F55Y/I96L/K41T/L162R/M171V/P40S/Q125H/Q178H/Q39Y/R42S/S66N/T106N/T262R/W38E/Y61H); assay: biochemical; conditions: Binding Capacity (IC50% nM) DR3
DRB1*1302 (DR6w19) = molecular target: T7, DRB1*1302 (DR6w19) (Homo sapiens, UniProt P01903+P01911, A100E/A169T/K41T/L162R/M171V/P40S/Q125H/Q178H/Q39Y/Q99D/R42S/S66N/T262R/V115G/W38E/Y61H); assay: biochemical; assay type: binding
T7 construct: Epstein-Barr virus (EBV) transformed homozygous cell lines were used as sources; the source of Class II molecules the EBV transformed homozygous cell line H0301; endogenous in cells; host or cells: H0301 (EBV-transformed homozygous B cell line)

DRB1*1101 (DR5w11) = molecular target: T8, DRB1*1101 (DR5w11) (Homo sapiens, UniProt P01903+P01911, A100R/A169T/A87E/I96F/K41T/L162R/M171V/P40S/Q125H/Q178H/Q39Y/Q99D/R42S/S66Y/T262R/V115G/W38E); assay: biochemical; assay type: binding
T8 construct: Epstein-Barr virus (EBV) transformed homozygous cell lines were used as sources; endogenous in cells; host or cells: SWEIG (EBV-transformed homozygous B cell line)

DRB1*1201 (DR5w12) = molecular target: T9, DRB1*1201 (DR5w12) (Homo sapiens, UniProt P01903+P01911, A100R/A169T/D57E/D86V/F55L/H45Y/K41T/L162R/M171V/P40S/Q125H/Q178H/Q39Y/Q99D/R42G/S66L/T262R/V114A/V67L/W38E/Y59H/Y61H/Y89S); assay: biochemical; assay type: binding
T9 construct: Epstein-Barr virus (EBV) transformed homozygous cell lines were used as sources; endogenous in cells; host or cells: Herluf (EBV-transformed homozygous B cell line)

DRB1*0401 (DR4w4) = molecular target: T10, DRB1*0401 (DR4w4) (Homo sapiens, UniProt P01903+P01911, A100K/A169T/F76Y/I96L/K127E/L162R/M171V/N62H/P40V/Q125Y/R42H/S133A/S149N/S66Y/V115G/V209L/W38E); assay: biochemical; assay type: binding
T10 construct: Epstein-Barr virus (EBV) transformed homozygous cell lines were used as sources; endogenous in cells; host or cells: PREISS (EBV-transformed homozygous B cell line)

DRB1*0701 (DR7) = molecular target: T11, DRB1*0701 (DR7) (Homo sapiens, UniProt P01903+P01911, A100R/A102G/A103Q/D57E/D86V/E43K/F76Y/K127E/L162R/M171V/P40G/Q125H/Q99D/R33Q/R42Y/R54Q/S133A/S66F/T210M/V115G/Y107V/Y59L/Y89S); assay: biochemical; assay type: binding
T11 construct: Epstein-Barr virus (EBV) transformed homozygous cell lines were used as sources; endogenous in cells; host or cells: PITOUT (EBV-transformed homozygous B cell line)

DRB1*0301 (DR3w17) [2] = molecular target: T6, DRB1*0301 (DR3w17); conditions: read-out: Binding Capacity (IC 50% nM) Other Alleles DR3
DRB5*0101 (DR2w2a) = molecular target: T12, DRB5*0101 (DR2w2a) (Homo sapiens, UniProt P01903+Q30154); assay: biochemical; assay type: binding
T12 construct: Epstein-Barr virus (EBV) transformed homozygous cell lines were used as sources; endogenous in cells; host or cells: GM3107 (EBV-transformed homozygous B cell line)

[3] = Binding Capacity (IC50% nM) DR8w2
[4] = read-out: Binding Capacity (IC 50% nM) Other Alleles DR8w2
[5] = Binding Capacity (IC50% nM) DR4w15
[6] = Binding Capacity (IC 50% nM) Other Alleles DR4w15
[7] = Binding Capacity (IC50% nM) DR2w2b
[8] = read-out: Binding Capacity (IC 50% nM) Other Alleles DR2w2b
[9] = Binding Capacity (IC50% nM) DR9
[10] = read-out: Binding Capacity (IC 50% nM) Other Alleles DR9
[11] = Binding Capacity (IC 50% nM) DR1,4,7 DRB1
[12] = Binding Capacity (IC50% nM) DR6w19
[13] = read-out: Binding Capacity (IC 50% nM) Other Alleles DR6w19
[14] = Binding Capacity (IC50% nM) DR5w11
[15] = read-out: Binding Capacity (IC 50% nM) Other Alleles DR5w11
[16] = Binding Capacity (IC50% nM) DR5w12
[17] = read-out: Binding Capacity (IC 50% nM) Other Alleles DR5w12
[18] = Binding Capacity (IC 50% nM) DR1,4,7 DR4w4
[19] = Binding Capacity (IC50% nM) DR7
[20] = read-out: Binding Capacity (IC 50% nM) DR1,4,7 DR7
[21] = Binding Capacity (IC 50% nM) Other Alleles DR2w2a

T8 sequence (P01903 26-254, other chains not shown): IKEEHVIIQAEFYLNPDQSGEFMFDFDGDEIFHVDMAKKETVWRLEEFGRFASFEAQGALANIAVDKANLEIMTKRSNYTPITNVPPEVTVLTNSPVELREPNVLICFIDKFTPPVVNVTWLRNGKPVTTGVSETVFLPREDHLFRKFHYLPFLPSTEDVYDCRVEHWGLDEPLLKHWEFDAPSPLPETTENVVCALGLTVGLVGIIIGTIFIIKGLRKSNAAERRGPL

Row | Molecule | IC50 (DRB1*0802 (DR8w2); [3]) [nM] | IC50 (DRB1*0802 (DR8w2); [4]) [nM] | IC50 (DRB1*0405 (DR4w15); [5]) [nM] | IC50 (DRB1*0405 (DR4w15); [6]) [nM] | IC50 (DRB1*1501 (DR2w2b); [7]) [nM] | IC50 (DRB1*1501 (DR2w2b); [8]) [nM] | IC50 (DRB1*0901 (DR9); [9]) [nM] | IC50 (DRB1*0901 (DR9); [10]) [nM] | IC50 (DRB1*0101 (DR1); [11]) [nM] | IC50 (DRB1*0301 (DR3w17) [1]) [nM] | IC50 (DRB1*1302 (DR6w19); [12]) [nM] | IC50 (DRB1*1302 (DR6w19); [13]) [nM] | IC50 (DRB1*1101 (DR5w11); [14]) [nM] | IC50 (DRB1*1101 (DR5w11); [15]) [nM] | IC50 (DRB1*1201 (DR5w12); [16]) [nM] | IC50 (DRB1*1201 (DR5w12); [17]) [nM] | IC50 (DRB1*0401 (DR4w4); [18]) [nM] | IC50 (DRB1*0701 (DR7); [19]) [nM] | IC50 (DRB1*0701 (DR7); [20]) [nM] | IC50 (DRB1*0301 (DR3w17) [2]) [nM] | further results
1 | QEIDPLSYNYIPVNSN [Peptide 1136.55] | > 10000 | > 1000 | 271 | < 1000 | > 10000 | > 1000 | > 10000 | > 1000 | < 1000 | > 10000 | 5000 | > 1000 | 4540 | > 1000 | > 10000 | > 1000 | < 1000 | 2450 | > 1000 | > 1000 | IC50 (DRB5*0101 (DR2w2a); Binding Capacity (IC50% nM) DR2w2a): > 10000 nM; IC50 (DRB5*0101 (DR2w2a); read-out: Binding Capacity (IC 50% nM) Other Alleles DR2w2a): > 1000 nM
2 | CC[C@H](C)[C@H](N)C(=O)N1CCC[C@H]1C(=O)N[C@@H](CCC(N)=O)C(=O)N[C@@H](CCC(=O)O)C(=O)N[C@@H](Cc1c[nH]c2ccccc12)C(=O)N[C@@H](CCCCN)C(=O)N1CCC[C@H]1C(=O)N[C@@H](C)C(=O)N[C@H](C(=O)N[C@H](C(=O)N[C@H](C(=O)N[C@@H](CCCCN)C(=O)N[C@H](C(=O)N[C@@H](CC(C)C)C(=O)N1CCC[C@H]1C(=O)N[C@@H](C)C(=O)O)C(C)C)C(C)C)[C@@H](C)O)[C@@H](C)CC [Peptide 1136.21] | – | > 1000 | – | < 1000 | – | > 1000 | – | – | < 1000 | > 10000 | 259 | – | – | > 1000 | > 10000 | > 1000 | < 1000 | – | – | > 1000 | IC50 (DRB1*0901 (DR9); Binding Capacity (IC 50% nM) Other Alleles DR9): < 1000 nM; IC50 (DRB1*1302 (DR6w19); Binding Capacity (IC 50% nM) Other Alleles DR6w19): < 1000 nM; IC50 (DRB1*0701 (DR7); Binding Capacity (IC 50% nM) DR1,4,7 DR7): < 1000 nM; IC50 (DRB5*0101 (DR2w2a); [21]): < 1000 nM
3 | LFHYYFLSEKAPGSTV [Peptide 1136.04] | 55 | – | 563 | < 1000 | 1260 | > 1000 | 2880 | > 1000 | < 1000 | > 10000 | > 10000 | > 1000 | 69 | – | > 10000 | > 1000 | < 1000 | 3330 | > 1000 | > 1000 | IC50 (DRB1*0802 (DR8w2); Binding Capacity (IC 50% nM) Other Alleles DR8w2): < 1000 nM; IC50 (DRB1*0101 (DR1); Binding Capacity (IC50% nM) DR1): 24 nM; IC50 (DRB1*1101 (DR5w11); Binding Capacity (IC 50% nM) Other Alleles DR5w11): < 1000 nM; IC50 (DRB1*0401 (DR4w4); Binding Capacity (IC50% nM) DR4w4): 20 nM; IC50 (DRB5*0101 (DR2w2a); [21]): < 1000 nM
